Test results published in publication PMC3170524 (Physiological research / Academia Scientiarum Bohemoslovaca, 2010).
Residue numbers refer to the chain shown, from its start.

Columns and labels:
Assay in all cases: whole-cell patch clamp, peak current dose-response
Type in all cases: cell-based
rat P2X4R [1] = molecular target: T1, rat P2X4R (Rattus norvegicus, UniProt P51577, C116A)
T1 sequence (P51577 1-388 C116A): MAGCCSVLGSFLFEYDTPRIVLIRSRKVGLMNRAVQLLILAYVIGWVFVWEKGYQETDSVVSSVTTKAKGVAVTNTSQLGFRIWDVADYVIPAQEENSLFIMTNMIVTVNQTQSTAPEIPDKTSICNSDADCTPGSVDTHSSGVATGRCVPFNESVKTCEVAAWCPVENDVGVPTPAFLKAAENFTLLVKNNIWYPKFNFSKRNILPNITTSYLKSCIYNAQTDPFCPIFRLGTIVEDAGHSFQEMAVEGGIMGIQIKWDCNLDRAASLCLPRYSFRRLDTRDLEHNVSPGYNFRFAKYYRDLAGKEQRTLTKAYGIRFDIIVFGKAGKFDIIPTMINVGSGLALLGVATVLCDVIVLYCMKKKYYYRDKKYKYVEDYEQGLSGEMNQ

rat P2X4R [2] = molecular target: T2, rat P2X4R (Rattus norvegicus, UniProt P51577, C116T/C165T)
T2 sequence (P51577 1-388 C116T/C165T): T1 sequence (P51577 1-388 C116A) with A116T, C165T

rat P2X4R [3] = molecular target: T3, rat P2X4R (Rattus norvegicus, UniProt P51577, C261T/C270T)
T3 sequence (P51577 1-388 C261T/C270T): T1 sequence (P51577 1-388 C116A) with A116C, C261T, C270T

rat P2X4R [4] = molecular target: T4, rat P2X4R (Rattus norvegicus, UniProt P51577, C261A)
T4 sequence (P51577 1-388 C261A): T1 sequence (P51577 1-388 C116A) with A116C, C261A

rat P2X4R [5] = molecular target: T5, rat P2X4R (Rattus norvegicus, UniProt P51577, C132T/C159T)
T5 sequence (P51577 1-388 C132T/C159T): T1 sequence (P51577 1-388 C116A) with A116C, C132T, C159T

rat P2X4R [6] = molecular target: T6, rat P2X4R (Rattus norvegicus, UniProt P51577, C159T)
T6 sequence (P51577 1-388 C159T): T1 sequence (P51577 1-388 C116A) with A116C, C159T

rat P2X4R [7] = molecular target: T7, rat P2X4R (Rattus norvegicus, UniProt P51577, C159A)
T7 sequence (P51577 1-388 C159A): T1 sequence (P51577 1-388 C116A) with A116C, C159A

Q: What does the source list for `Nc1ncnc2c1ncn2[C@@H]1O[C@H](COP(=O)(O)OP(=O)(O)OP(=O)(O)O)[C@@H](O)[C@H]1O` [ATP]?
A: EC50 (rat P2X4R [1]): 27 ± 6.5 µM; EC50 (rat P2X4R [2]): 57 ± 19 µM; EC50 (rat P2X4R [3]): 1.7 ± 0.8 µM; EC50 (rat P2X4R [4]): 5.5 ± 1.7 µM; EC50 (rat P2X4R [5]): 5.3 ± 0.8 µM; EC50 (rat P2X4R [6]): 12 ± 4.1 µM; EC50 (rat P2X4R [7]): 5.1 ± 1.4 µM
